From patent publication US20230128402A1 (The Trustees of Princeton University, priority 2020, published 2023) come the findings set out here.

In general, IC50 refers to the concentration that gives 50% inhibition.

One assay has as its target T1, ALDH1a3 (Homo sapiens, UniProt P47895).
T1 sequence (P47895 1-512): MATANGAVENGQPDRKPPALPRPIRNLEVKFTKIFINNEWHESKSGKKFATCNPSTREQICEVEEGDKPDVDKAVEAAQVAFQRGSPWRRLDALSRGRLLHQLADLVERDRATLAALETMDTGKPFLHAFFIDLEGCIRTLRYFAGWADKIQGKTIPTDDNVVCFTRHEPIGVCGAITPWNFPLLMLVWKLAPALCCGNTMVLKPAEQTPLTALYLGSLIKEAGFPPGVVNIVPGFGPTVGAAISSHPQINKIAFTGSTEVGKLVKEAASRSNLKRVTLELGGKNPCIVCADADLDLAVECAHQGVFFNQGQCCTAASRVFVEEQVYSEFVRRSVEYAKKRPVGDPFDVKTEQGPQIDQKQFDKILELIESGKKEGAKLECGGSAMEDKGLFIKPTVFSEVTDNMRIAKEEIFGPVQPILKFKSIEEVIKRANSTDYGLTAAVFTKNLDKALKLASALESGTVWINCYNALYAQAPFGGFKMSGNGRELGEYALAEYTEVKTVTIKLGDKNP
Description: Aldh1a3 enzyme inhibition assay, recombinant hALDH1a3. More on the design: made in house; host or cells: E. coli BL21-DE3, pET-Aldh1a3. The note with it: resorufin fluorescence, 20° C. It counts as biochemical. The text has this: (§1) Recombinant enzyme and inhibitor added immediately before assay. Reaction rate measured by resorufin fluorescence.

In another assay the target is T2, mALDH1a3 (Mus musculus, UniProt Q9JHW9).
T2 construct: made in house; host or cells: E. coli BL21-DE3, pET-Aldh1a3
T2 sequence (Q9JHW9 1-512): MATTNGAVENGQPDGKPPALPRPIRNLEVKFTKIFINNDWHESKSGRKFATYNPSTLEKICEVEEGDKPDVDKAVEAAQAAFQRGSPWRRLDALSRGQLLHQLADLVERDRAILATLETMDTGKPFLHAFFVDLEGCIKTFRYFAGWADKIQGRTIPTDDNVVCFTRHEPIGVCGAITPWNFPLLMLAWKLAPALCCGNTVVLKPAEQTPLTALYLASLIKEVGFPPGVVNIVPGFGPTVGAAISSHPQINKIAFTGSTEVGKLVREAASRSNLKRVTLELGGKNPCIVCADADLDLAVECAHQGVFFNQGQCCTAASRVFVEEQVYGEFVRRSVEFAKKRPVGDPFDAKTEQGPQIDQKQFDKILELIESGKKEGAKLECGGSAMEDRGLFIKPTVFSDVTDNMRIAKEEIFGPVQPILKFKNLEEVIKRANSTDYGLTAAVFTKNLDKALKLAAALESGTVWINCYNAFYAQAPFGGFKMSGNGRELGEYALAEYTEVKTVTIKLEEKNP
Description: Aldh1a3 enzyme inhibition assay, recombinant mALDH1a3. In kind it is biochemical. The following applies: resorufin fluorescence, 20° C.
Text: as §1

Take `CCc1cnc(C)cc1C(=O)Nc1ccc2c(c1)CCC(=O)N2` [Compound 56, 5-ethyl-2-methyl-N-(2-oxo-3,4-dihydro-1H-quinolin-6-yl)pyridine-4-carboxamide]: the figures for the IC50 on ALDH1a3 and at mALDH1a3 were 0.1 to 0.25 µM and 0.25 to 1 µM, respectively.
Consider `CCc1cnccc1C(=O)Nc1ccc2c(c1)C(C)CC(=O)N2` (centres unmarked) [Compound 64, 3-ethyl-N-(4-methyl-2-oxo-3,4-dihydro-1H-quinolin-6-yl)pyridine-4-carboxamide], for which the figures for the IC50 on ALDH1a3 and at mALDH1a3 were 0.1 to 0.25 µM and 0.25 to 1 µM, respectively.
On to `O=C1CCc2cc(NC(=O)c3ccnc4ccccc34)ccc2N1` [Compound 52, N-(2-oxo-3,4-dihydro-1H-quinolin-6-yl)quinoline-4-carboxamide], for which the IC50 at ALDH1a3 is 0.25 to 1 µM; at mALDH1a3 it was 0.1 to 0.25 µM.
With `CCc1cnccc1C(=O)Nc1ccc2c(c1F)CCC(=O)N2` [Compound 85], the IC50 on ALDH1a3 and at mALDH1a3 was greater than 5 µM in each case.
As to `CC1(C)Cc2cc(Nc3ccc4ccncc4n3)ccc2NC1=O` [Compound 94, 3,3-dimethyl-6-(1,7-naphthyridin-2-ylamino)-1,4-dihydroquinolin-2-one], the results for the IC50 on ALDH1a3 and at mALDH1a3 were 1 to 5 µM and greater than 5 µM, respectively.
For `CCc1cnccc1C(=O)Nc1ccc2c(c1)CN(C)C(=O)N2` [Compound 20, 3-ethyl-N-(3-methyl-2-oxo-1,4-dihydroquinazolin-6-yl)pyridine-4-carboxamide], the IC50 was 1 to 5 µM at ALDH1a3 and greater than 5 µM on mALDH1a3.
Turning to `CC1(C)Cc2cc(Nc3nc4ccccc4[nH]3)ccc2NC1=O` [Compound 98, 6-(1H-benzimidazol-2-ylamino)-3,3-dimethyl-1,4-dihydroquinolin-2-one], the IC50 at ALDH1a3 and at mALDH1a3 was 1 to 5 µM each time.
On to `O=C1CCc2cc(NC(=O)c3ccncc3C(F)(F)F)ccc2N1` [Compound 54, N-(2-oxo-3,4-dihydro-1H-quinolin-6-yl)-3-(trifluoromethyl)pyridine-4-carboxamide], for which the figures for the IC50 on ALDH1a3 and on mALDH1a3 were 0.25 to 1 µM and greater than 5 µM, respectively.
For the molecule `CCc1cnccc1C(=O)Nc1ccc2c(c1)CC(C)C(=O)N2` (centres unmarked) [Compound 63, 3-ethyl-N-(3-methyl-2-oxo-3,4-dihydro-1H-quinolin-6-yl)pyridine-4-carboxamide], the IC50 on ALDH1a3 was 0.1 to 0.25 µM; at mALDH1a3 it was 0.25 to 1 µM.
For `O=S1(=O)CCc2cc(Nc3ccc4ccccc4n3)ccc2N1` [Compound 102], in that order: greater than 5 µM and greater than 5 µM.
For the molecule `CCCc1cnccc1C(=O)Nc1cc2c(cc1F)NC(=O)CC2` [Compound 5], the IC50 is less than 0.1 µM on ALDH1a3 and 0.25 to 1 µM at mALDH1a3.
As to `CCc1cnccc1C(=O)Nc1cc2c(cc1Cl)NC(=O)CC2` [Compound 70, N-(7-chloro-2-oxo-3,4-dihydro-1H-quinolin-6-yl)-3-ethyl-pyridine-4-carboxamide], the IC50 was less than 0.1 µM at ALDH1a3 and 0.25 to 1 µM at mALDH1a3.
Take `CC1(C)Cc2cc(Nc3ccc(Cl)c(Cl)n3)ccc2NC1=O` [Compound 97, 6-[(5,6-dichloro-2-pyridyl)amino]-3,3-dimethyl-1,4-dihydroquinolin-2-one]: the IC50 on ALDH1a3 was 1 to 5 µM; on mALDH1a3 it was greater than 5 µM.
For the molecule `CC1(C)Cc2cc(Nc3cnc4ccc(C(=O)O)cc4n3)ccc2NC1=O` [Compound 118, 3-[(3,3-dimethyl-2-oxo-1,4-dihydroquinolin-6-yl)amino]quinoxaline-6-carboxylic acid], the IC50 at ALDH1a3 and at mALDH1a3 was greater than 5 µM in each case.
Regarding `C=CCc1cnccc1C(=O)Nc1ccc2c(c1)CCC(=O)N2` [Compound 71, 3-allyl-N-(2-oxo-3,4-dihydro-1H-quinolin-6-yl)pyridine-4-carboxamide], the IC50 at ALDH1a3 fell in the range of 0.25 to 1 µM; at mALDH1a3, 1 to 5 µM.
In the case of `CCc1cnc(F)cc1C(=O)Nc1ccc2c(c1)CCC(=O)N2` [Compound 78, 5-ethyl-2-fluoro-N-(2-oxo-3,4-dihydro-1H-quinolin-6-yl)pyridine-4-carboxamide], the figures for the half-inhibitory concentration (IC50) on ALDH1a3 and on mALDH1a3 were less than 0.1 µM and 0.25 to 1 µM, respectively.
For the molecule `Cc1ccc(Nc2ccc3c(c2)CC(C)(C)C(=O)N3)nc1C` [Compound 96, 6-[(5,6-dimethyl-2-pyridyl)amino]-3,3-dimethyl-1,4-dihydroquinolin-2-one], the IC50 at ALDH1a3 and on mALDH1a3 was greater than 5 µM each time.
With `COc1cnccc1C(=O)Nc1cc2c(cc1F)NC(=O)C(C)(C)C2` [Compound 41, N-(7-fluoro-3,3-dimethyl-2-oxo-1,4-dihydroquinolin-6-yl)-3-methoxy-pyridine-4-carboxamide], the IC50 at ALDH1a3 and at mALDH1a3 was greater than 5 µM each time.
As for `CN(C)Cc1cnccc1C(=O)Nc1ccc2c(c1)CCC(=O)N2` [Compound 58, 3-[(dimethylamino)methyl]-N-(2-oxo-3,4-dihydro-1H-quinolin-6-yl)pyridine-4-carboxamide], the IC50 at ALDH1a3 and at mALDH1a3 was greater than 5 µM in each case.
For the molecule `CC1(C)Cc2cc(Nc3ccc4c(c3)NC(=O)CC4)ccc2NC1=O` [Compound 114, 3,3-dimethyl-6-[(2-oxo-3,4-dihydro-1H-quinolin-7-yl)amino]-1,4-dihydroquinolin-2-one], the half-maximal inhibitory concentration (IC50) on ALDH1a3 and at mALDH1a3 was greater than 5 µM each time.
For the molecule `CC1(C)Cc2cc(Nc3c[nH]c4ccccc4c3=O)ccc2NC1=O` [Compound 115, 3,3-dimethyl-6-[(4-oxo-1H-quinolin-3-yl)amino]-1,4-dihydroquinolin-2-one], the IC50 at ALDH1a3 and at mALDH1a3 was greater than 5 µM throughout.
Turning to `CC1(C)Cc2cc(Nc3cc(Cl)c(Cl)cn3)ccc2NC1=O` [Compound 125, 6-[(4,5-dichloro-2-pyridyl)amino]-3,3-dimethyl-1,4-dihydroquinolin-2-one], the IC50 is 0.25 to 1 µM on ALDH1a3 and greater than 5 µM at mALDH1a3.
Turning to `N#Cc1cccc2nc(Nc3ccc4c(c3)CCC(=O)N4)ccc12` [Compound 86, 2-[(2-oxo-3,4-dihydro-1H-quinolin-6-yl)amino]quinoline-5-carbonitrile], the IC50 at ALDH1a3 was greater than 5 µM; at mALDH1a3, 1 to 5 µM.
The matching figures for `CCc1cnccc1C(=O)Nc1ccc2c(c1)C(C)(C)CC(=O)N2` [Compound 19, N-(4,4-dimethyl-2-oxo-1,3-dihydroquinolin-6-yl)-3-ethyl-pyridine-4-carboxamide]: 0.25 to 1 µM and 1 to 5 µM.
In the case of `CCc1c[nH]c(=O)cc1C(=O)Nc1ccc2c(c1)CCC(=O)N2` [Compound 51, 5-ethyl-2-oxo-N-(2-oxo-3,4-dihydro-1H-quinolin-6-yl)-1H-pyridine-4-carboxamide], the IC50 at ALDH1a3 and on mALDH1a3 was greater than 5 µM in each case.
`Cc1nc(Nc2ccc3c(c2)CC(C)(C)C(=O)N3)nc2ccccc12` [Compound 132, 3,3-dimethyl-6-[(4-methylquinazolin-2-yl)amino]-1,4-dihydroquinolin-2-one]: the half-maximal inhibitory concentration (IC50) at ALDH1a3 and on mALDH1a3 was 0.25 to 1 µM each time.
In the case of `N#Cc1cccc2ncc(Nc3ccc4c(c3)CCC(=O)N4)cc12` [Compound 100, 3-[(2-oxo-3,4-dihydro-1H-quinolin-6-yl)amino]quinoline-5-carbonitrile], the IC50 on ALDH1a3 and on mALDH1a3 was greater than 5 µM in each case.
Regarding `N#Cc1ccc2ccc(Nc3ccc4c(c3)CCC(=O)N4)nc2c1` [Compound 90, 2-[(2-oxo-3,4-dihydro-1H-quinolin-6-yl)amino]quinoline-7-carbonitrile], the IC50 on ALDH1a3 and on mALDH1a3 was greater than 5 µM in each case.
`CC1(C)Cc2cc(Nc3ccc4c(Cl)cccc4n3)ccc2NC1=O` [Compound 112, 6-[(5-chloro-2-quinolyl)amino]-3,3-dimethyl-1,4-dihydroquinolin-2-one]: the IC50 on ALDH1a3 and on mALDH1a3 was 0.25 to 1 µM throughout.
For the molecule `COCc1cnccc1C(=O)Nc1ccc2c(c1)CCC(=O)N2` [Compound 57, 3-(methoxymethyl)-N-(2-oxo-3,4-dihydro-1H-quinolin-6-yl)pyridine 4 carboxamide], the IC50 at ALDH1a3 and at mALDH1a3 was greater than 5 µM throughout.
For the molecule `CCc1cnccc1C(=O)Nc1ccc2c(c1)NC(=O)CC2` [Compound 32], the IC50 at ALDH1a3 and on mALDH1a3 was greater than 5 µM in each case.
